# Data as given in US20210038607A1, “OXADIAZOLYLTHIOPHENE DERIVATIVES USEFUL AS HISTONE DEACETYLASE INHIBITORS” (Karus Therapeutics Limited, priority 2018, published 2021).
# How the values were obtained:
# Recombinant human HDAC6 = target: T1, Recombinant human HDAC6 (Homo sapiens, UniProt Q9UBN7); assay: HDAC6 biochemical assay, AMC-labeled peptide substrate; conditions: HDAC6; read-out: HDAC Isoform IC50 (nM) 6
# T1 construct: full length, MW=159 kDa; GST (N); host or cells: Sf9 insect cells (baculovirus)
# T1 sequence (Q9UBN7 1-1215): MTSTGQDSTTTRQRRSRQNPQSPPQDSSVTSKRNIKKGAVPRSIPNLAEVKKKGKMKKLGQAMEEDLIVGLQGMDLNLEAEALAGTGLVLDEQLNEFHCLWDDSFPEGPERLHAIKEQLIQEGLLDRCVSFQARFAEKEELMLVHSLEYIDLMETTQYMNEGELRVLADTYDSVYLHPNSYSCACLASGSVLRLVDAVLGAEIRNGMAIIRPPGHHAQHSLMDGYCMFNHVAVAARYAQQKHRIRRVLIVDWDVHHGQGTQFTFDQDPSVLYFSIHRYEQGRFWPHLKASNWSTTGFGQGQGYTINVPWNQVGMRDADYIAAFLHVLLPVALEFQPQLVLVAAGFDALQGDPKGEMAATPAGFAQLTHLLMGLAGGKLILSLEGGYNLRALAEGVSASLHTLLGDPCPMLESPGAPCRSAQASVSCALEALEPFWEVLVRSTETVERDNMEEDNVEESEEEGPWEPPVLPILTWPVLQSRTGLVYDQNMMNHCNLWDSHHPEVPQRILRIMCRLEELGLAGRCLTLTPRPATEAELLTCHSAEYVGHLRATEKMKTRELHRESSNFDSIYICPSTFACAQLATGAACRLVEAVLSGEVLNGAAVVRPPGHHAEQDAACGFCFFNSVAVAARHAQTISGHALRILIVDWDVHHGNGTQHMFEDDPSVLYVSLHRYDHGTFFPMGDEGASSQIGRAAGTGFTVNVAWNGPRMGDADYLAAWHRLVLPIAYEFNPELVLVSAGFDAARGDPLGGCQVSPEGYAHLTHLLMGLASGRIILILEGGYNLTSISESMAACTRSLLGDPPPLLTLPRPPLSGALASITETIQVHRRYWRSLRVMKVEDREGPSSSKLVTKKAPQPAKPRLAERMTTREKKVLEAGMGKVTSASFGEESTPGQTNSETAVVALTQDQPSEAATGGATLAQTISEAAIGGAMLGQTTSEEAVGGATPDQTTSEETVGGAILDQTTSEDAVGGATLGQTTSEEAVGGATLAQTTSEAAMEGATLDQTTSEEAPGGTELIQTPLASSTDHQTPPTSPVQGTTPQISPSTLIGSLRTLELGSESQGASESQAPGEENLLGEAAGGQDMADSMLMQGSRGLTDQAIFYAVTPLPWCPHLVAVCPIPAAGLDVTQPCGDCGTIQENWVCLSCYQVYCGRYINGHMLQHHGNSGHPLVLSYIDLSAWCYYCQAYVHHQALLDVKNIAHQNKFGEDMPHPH
# Summary of the method: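 Two-step fluorogenic read-out: enzyme deacetylates 50 μM RHKK(Ac)AMC for 1 h at 30° C in pH 8.0 Tris buffer with BSA and 1% DMSO, then developer cleavage gives signal at Ex 360/Em 460. Enzyme: 0.3 ng/ul recombinant full-length human HDAC6, GST-tagged, Sf9-expressed.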
# Human HDAC7 = target: T2, Human HDAC7 (Homo sapiens, UniProt Q8WUI4); assay: HDAC7 biochemical assay, class IIa-specific substrate; conditions: read-out: HDAC Isoform IC50 (nM) 7
# T2 construct: (a.a. 518-end) with N-terminal GST tag; GST (N); host or cells: baculovirus expression system
# T2 sequence (Q8WUI4 518-952 limits assumed): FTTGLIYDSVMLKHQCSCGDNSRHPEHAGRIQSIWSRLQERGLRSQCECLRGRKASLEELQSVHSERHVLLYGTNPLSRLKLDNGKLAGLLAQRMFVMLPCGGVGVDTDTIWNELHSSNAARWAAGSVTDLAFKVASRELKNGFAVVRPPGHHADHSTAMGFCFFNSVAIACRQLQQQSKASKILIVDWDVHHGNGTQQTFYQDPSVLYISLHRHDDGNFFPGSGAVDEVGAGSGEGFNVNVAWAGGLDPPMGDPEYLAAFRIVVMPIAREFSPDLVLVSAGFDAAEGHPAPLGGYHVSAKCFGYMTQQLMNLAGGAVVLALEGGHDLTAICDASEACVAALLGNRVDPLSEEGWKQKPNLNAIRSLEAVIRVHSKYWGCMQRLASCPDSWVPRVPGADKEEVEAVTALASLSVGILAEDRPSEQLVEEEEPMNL
# Summary of the method: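 GST-tagged HDAC7 (a.a. 518-end, baculovirus-expressed) at 0.001 ng/ul with 50 μM Boc-Lys(trifluoroacetyl)-AMC substrate, 30 min at room temperature in pH 8.0 Tris buffer with BSA, 1% DMSO final. Developer then releases AMC; fluorescence read at 360/460 nm.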
# Human HDAC1 = target: T3, Human HDAC1 (Homo sapiens, UniProt Q13547); assay: HDAC1 biochemical assay, AMC-labeled peptide substrate; conditions: read-out: HDAC Isoform IC50 (nM) 1
# T3 construct: full length with C-terminal His-tag and C-terminal FLAG-tag; His (C); FLAG (C); host or cells: baculovirus expression system
# T3 sequence (Q13547 whole entry, canonical isoform): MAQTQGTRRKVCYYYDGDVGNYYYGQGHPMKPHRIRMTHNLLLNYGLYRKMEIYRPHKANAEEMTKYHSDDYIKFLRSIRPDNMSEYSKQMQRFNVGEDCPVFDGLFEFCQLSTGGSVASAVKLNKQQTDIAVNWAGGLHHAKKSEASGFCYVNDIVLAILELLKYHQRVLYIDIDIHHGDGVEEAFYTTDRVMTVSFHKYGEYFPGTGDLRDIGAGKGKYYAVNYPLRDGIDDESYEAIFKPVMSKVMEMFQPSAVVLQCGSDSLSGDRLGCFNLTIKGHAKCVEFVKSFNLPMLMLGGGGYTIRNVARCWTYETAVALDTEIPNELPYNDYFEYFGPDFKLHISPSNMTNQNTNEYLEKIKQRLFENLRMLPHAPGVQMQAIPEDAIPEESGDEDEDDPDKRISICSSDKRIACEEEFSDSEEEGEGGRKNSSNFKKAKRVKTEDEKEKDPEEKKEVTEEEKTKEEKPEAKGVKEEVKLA
# Summary of the method: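 Baculovirus-expressed full-length human HDAC1 with His and FLAG tags, 0.3 ng/ul, incubated 1 h at 30° C with compound and 50 μM RHKK(Ac)AMC in Tris pH 8.0 buffer with BSA and 1% DMSO. Developer then releases AMC from deacetylated substrate; fluorescence read at 360/460 nm.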
SMILES,IC50 (Recombinant human HDAC6),IC50 (Human HDAC7),IC50 (Human HDAC1)
"Cc1cnc(N(Cc2ccc(-c3noc(C(F)(F)F)n3)s2)c2cnccn2)cn1 [Example BH, 5-Methyl-N-(pyrazin-2-yl)-N-({5-[5-(trifluoromethyl)-1,2,4-oxadiazol-3-yl]thiophen-2-yl}methyl)pyrazin-2-amine]",≤ 500 nM,≤ 1000 nM,≤ 10000 nM
"COc1cncc(N(Cc2ccc(-c3noc(C(F)(F)F)n3)s2)c2cc(C(F)(F)F)cnn2)n1 [Example EN, N-(6-Methoxypyrazin-2-yl)-5-(trifluoromethyl)-N-({5-[5-(trifluoromethyl)-1,2,4-oxadiazol-3-yl]thiophen-2-yl}methyl)pyridazin-3-amine]",≤ 500 nM,≤ 10000 nM,> 10000 nM
"Fc1ccnc(N(Cc2ccc(-c3noc(C(F)(F)F)n3)s2)c2cnccn2)c1 [Example AG, N-(4-Fluoropyridin-2-yl)-N-({5-[5-(trifluoromethyl)-1,2,4-oxadiazol-3-yl]thiophen-2-yl}methyl)pyrazin-2-amine]",≤ 500 nM,≤ 10000 nM,> 10000 nM
"Nc1cnnc(N(Cc2ccc(-c3noc(C(F)(F)F)n3)s2)c2cnccn2)c1 [Example FL, N3-(Pyrazin-2-yl)-N3-({5-[5-(trifluoromethyl)-1,2,4-oxadiazol-3-yl]thiophen-2-yl}methyl)pyridazine-3,5-diamine]",≤ 500 nM,≤ 500 nM,> 10000 nM
"O=C(c1cnnc(N(Cc2ccc(-c3noc(C(F)(F)F)n3)s2)c2cnccn2)c1)N1C[C@H]2C[C@@H]1CO2 [Example FW, 5-[(1R,4R)-2-Oxa-5-azabicyclo[2.2.1]heptane-5-carbonyl]-N-(pyrazin-2-yl)-N-({5-[5-(trifluoromethyl)-1,2,4-oxadiazol-3-yl]thiophen-2-yl}methyl)pyridazin-3-amine]",≤ 500 nM,≤ 10000 nM,> 10000 nM
"O=C(c1cnnc(N(Cc2ccc(-c3noc(C(F)(F)F)n3)s2)c2cnccn2)c1)N1C[C@@H]2C[C@H]1CO2 [Example FV, 5-[(1S,4S)-2-Oxa-5-azabicyclo[2.2.1]heptane-5-carbonyl]-N-(pyrazin-2-yl)-N-({5-[5-(trifluoromethyl)-1,2,4-oxadiazol-3-yl]thiophen-2-yl}methyl)pyridazin-3-amine]",≤ 500 nM,≤ 10000 nM,> 10000 nM
"O=C(c1cncc(N(Cc2ccc(-c3noc(C(F)(F)F)n3)s2)c2cnccn2)c1)N1CCOCC1 [Example GR, N-[5-(Morpholine-4-carbonyl)pyridin-3-yl]-N-({5-[5-(trifluoromethyl)-1,2,4-oxadiazol-3-yl]thiophen-2-yl}methyl)pyrazin-2-amine]",≤ 10000 nM,≤ 500 nM,> 10000 nM
"O=C(c1cnnc(N(Cc2ccc(-c3noc(C(F)(F)F)n3)s2)c2cnccn2)c1)N1CC2CCC(C1)O2 [Example GA, 5-{8-Oxa-3-azabicyclo[3.2.1]octane-3-carbonyl}-N-(pyrazin-2-yl)-N-({5-[5-(trifluoromethyl)-1,2,4-oxadiazol-3-yl]thiophen-2-yl}methyl)pyridazin-3-amine]",≤ 500 nM,≤ 10000 nM,> 10000 nM
"FC(F)(F)c1cnc(N(Cc2ccc(-c3noc(C(F)(F)F)n3)s2)c2cnccn2)cn1 [Example BK, N-(Pyrazin-2-yl)-5-(trifluoromethyl)-N-({5-[5-(trifluoromethyl)-1,2,4-oxadiazol-3-yl]thiophen-2-yl}methyl)pyrazin-2-amine]",≤ 10000 nM,≤ 10000 nM,> 10000 nM
"COc1cnc(N(Cc2ccc(-c3noc(C(F)(F)F)n3)s2)c2cnccn2)cn1 [Example BI, 5-Methoxy-N-(pyrazin-2-yl)-N-({5-[5-(trifluoromethyl)-1,2,4-oxadiazol-3-yl]thiophen-2-yl}methyl)pyrazin-2-amine]",≤ 1000 nM,≤ 500 nM,> 10000 nM
"Cc1cncc(N(Cc2ccc(-c3noc(C(F)(F)F)n3)s2)c2cnccn2)n1 [Example BP, 6-Methyl-N-(pyrazin-2-yl)-N-({5-[5-(trifluoromethyl)-1,2,4-oxadiazol-3-yl]thiophen-2-yl}methyl)pyrazin-2-amine]",≤ 500 nM,≤ 10000 nM,> 10000 nM

# Next, values leading:
IC50 (Recombinant human HDAC6),IC50 (Human HDAC7),IC50 (Human HDAC1),SMILES
≤ 500 nM,≤ 500 nM,≤ 10000 nM,"O=C(c1ccc(N(Cc2ccc(-c3noc(C(F)(F)F)n3)s2)c2cnccn2)nn1)N1CCCC1 [Example FI, N-(Pyrazin-2-yl)-6-(pyrrolidine-1-carbonyl)-N-({5-[5-(trifluoromethyl)-1,2,4-oxadiazol-3-yl]thiophen-2-yl}methyl)pyridazin-3-amine]"
≤ 500 nM,≤ 10000 nM,> 10000 nM,"O=C(c1cnnc(N(Cc2ccc(-c3noc(C(F)(F)F)n3)s2)c2cnccn2)c1)N1CC[S+]([O-])CC1 [Example FU, 4-{6-[(Pyrazin-2-yl)({5-[5-(trifluoromethyl)-1,2,4-oxadiazol-3-yl]thiophen-2-yl}methyl)amino]pyridazine-4-carbonyl}-1lambda4-thiomorpholin-1-one]"
≤ 1000 nM,≤ 10000 nM,> 10000 nM,"O=C(c1nccnc1N(Cc1ccc(-c2noc(C(F)(F)F)n2)s1)c1cnccn1)N1CCC1 [Example GP, 3-(Azetidine-1-carbonyl)-N-(pyrazin-2-yl)-N-({5-[5-(trifluoromethyl)-1,2,4-oxadiazol-3-yl]thiophen-2-yl}methyl)pyrazin-2-amine]"
≤ 500 nM,≤ 10000 nM,> 10000 nM,"C[C@H]1CCCN1C(=O)c1cnnc(N(Cc2ccc(-c3noc(C(F)(F)F)n3)s2)c2cnccn2)c1 [Example GY, 5-[(2S)-2-Methylpyrrolidine-1-carbonyl]-N-(pyrazin-2-yl)-N-({5-[5-(trifluoromethyl)-1,2,4-oxadiazol-3-yl]thiophen-2-yl}methyl)pyridazin-3-amine]"
≤ 500 nM,≤ 500 nM,≤ 10000 nM,"O=C(c1ccc(N(Cc2ccc(-c3noc(C(F)(F)F)n3)s2)c2cnccn2)nn1)N1CCC12COC2 [Example FH, 6-{6-Oxa-1-azaspiro[3.3]heptane-1-carbonyl}-N-(pyrazin-2-yl)-N-({5-[5-(trifluoromethyl)-1,2,4-oxadiazol-3-yl]thiophen-2-yl}methyl)pyridazin-3-amine]"
≤ 500 nM,≤ 500 nM,≤ 10000 nM,"O=C(c1ccc(N(Cc2ccc(-c3noc(C(F)(F)F)n3)s2)c2cnccn2)nn1)N1CCC1 [Example FF, 6-(Azetidine-1-carbonyl)-N-(pyrazin-2-yl)-N-({5-[5-(trifluoromethyl)-1,2,4-oxadiazol-3-yl]thiophen-2-yl}methyl)pyridazin-3-amine]"
